The target of series [1] is T1, S-2L PurZ (Cyanophage S-2L, UniProt A0A7U3TBV6).
T1 construct: E. coli codon-optimized synthetic gene, N-terminal 14-His tag removed by TEV, expressed in E. coli; dimer
As to the kind of experiment: X-ray crystal structure, […] Å. The series is classed as binding. The conditions noted are these: co-crystallised with dGMP, soaked with dATP; pH 7.

The target of series [2] is T2, S-2L MazZ (Cyanophage S-2L, UniProt A0A7U3TBV3).
T2 construct: gene S2L_23; E. coli codon-optimized synthetic gene, N-terminal 14-His tag removed by TEV, expressed in E. coli; homotetramer
As to the kind of experiment: X-ray crystal structure, […] Å. The series is classed as binding. The following applies: crystallised with dGTP; dephosphorylation product dGDP; three Mn2+ ions; pH 8.5.

In series [3] the target is T1, S-2L PurZ. Briefly: HPLC product analysis. The series is classed as biochemical. The following applies: 10 mM aspartate, dGMP, 5 mM MgSO4, pH 7.5, 37 °C.
The target of series [4] is T2, S-2L MazZ. As to the kind of experiment: HPLC product analysis. The series is classed as biochemical. The following applies: 100 uM nucleotide, 5 mM MgCl2, pH 7.5, 37 °C.
Series [5] concerns the target S-2L MazZ (MazG-like (d)GTP-specific nucleotide diphosphohydrolase of cyanophage S-2L) (cyanophage S-2L). As to the kind of experiment: crystal structure; S-2L MazZ with the dGTP dephosphorylation product (dGDP) and Mn2+, 1.43 Å; crystals grown at 18 °C in 200 mM Li2SO4, 1.26 M (NH4)2SO4, 100 mM Tris pH 8.5; tetramer in the asymmetric unit.
Series [6] deals with the molecule itself. As to the kind of experiment: crystal structure; S-2L PurZ with dGMP and dATP, 1.7 Å; crystals grown at 4 °C in 15% Tacsimate, 2% PEG 3350, 100 mM HEPES pH 7; dimer reconstructed through crystallographic symmetry.

Regarding `Nc1ncnc2c1ncn2[C@H]1C[C@H](O)[C@@H](COP(=O)(O)OP(=O)(O)OP(=O)(O)O)O1` [dATP], in series [1], the “X-ray crystal structure, 1.7 Å” value was “We crystallized S-2L PurZ with two of its substrates, dGMP and dATP”. On to `Nc1nc2c(ncn2[C@H]2C[C@H](O)[C@@H](COP(=O)(O)OP(=O)(O)O)O2)c(=O)[nH]1` [dGDP], for which, in series [2], the “X-ray crystal structure, 1.43 Å” value was “The dGDP intermediate observed in crystallo is almost completely buried inside the enzyme”.

Take `N[C@@H](CC(=O)O)C(=O)O` [aspartic acid]: in series [3] (dATP/ATP), the HPLC product analysis entry is “reaction catalyzed by PurZ in presence of dGMP, Asp and dATP/ATP”. For the molecule `Nc1nc2c(ncn2[C@@H]2O[C@H](COP(=O)(O)OP(=O)(O)OP(=O)(O)O)[C@@H](O)[C@H]2O)c(=O)[nH]1` [GTP], the HPLC product analysis result in series [4] was “Its preferential substrates, dGTP and GTP, are rapidly dephosphorylated to dGMP and GMP”.

Regarding `Nc1nc2c(ncn2[C@H]2C[C@H](O)[C@@H](COP(=O)(O)O)O2)c(=O)[nH]1` [dGMP], the “X-ray crystal structure, 1.7 Å” value in series [1] was “We crystallized S-2L PurZ with two of its substrates, dGMP and dATP”. Consider `Nc1nc2c(ncn2[C@H]2C[C@H](O)[C@@H](COP(=O)(O)OP(=O)(O)OP(=O)(O)O)O2)c(=O)[nH]1` [dGTP], for which, in series [4], the HPLC product analysis result was “Its preferential substrates, dGTP and GTP, are rapidly dephosphorylated to dGMP and GMP”. One may read the stoichiometry N as a count of units in the complex or per binding partner. “S-2L MazZ (MazG-like (d)GTP-specific nucleotide diphosphohydrolase of cyanophage S-2L) (enzyme)” showed a stoichiometry N in series [5] of 4. For the molecule `Nc1ncnc2c1ncn2[C@@H]1O[C@H](COP(=O)(O)OP(=O)(O)OP(=O)(O)O)[C@@H](O)[C@H]1O` [ATP], in series [3] (2 mM nucleotides), the HPLC product analysis entry is listed as “it can act as a dATPase, but stays functional after dATP pool depletion by using ATP”.

B1: S-2L PurZ (homologue of adenylosuccinate synthetase of cyanophage S-2L) (enzyme)
chain: MLSIPPYYRVKNCNLIVDCQYGSTGKGLLAGYLGALEAPQVLCMAPSPNAGHTLVEEDGTARVHKMLPLGITSPSLERIYLGPGSVIDMDRLLEEYLALPRQVELWVHQNAAVVLQEHRDEEAAGGLAPGSTRSGAGSAFIAKIRRRPGTLLFGEAVRDHPLHGVVRVVDTRTAQDMLFRTRSIQAEGCQGYSLSVHHGAYPYCTARDVTTAQLIADCGLPYDVARIARVVGSMRTYPIRVANRPEAGEWSGPCYPDSVECQFADLGLEQEYTTVTKLPRRIFTFSAIQAHEAIAQNGVDEVFLNFAQYPPSLGALEDILDAIEARAEVTYVGFGPKVTDVYHTPTRAELEGLYARYRR
notes: PurZ of cyanophage S-2L, product of the gene purZ; synthetic gene optimised for E. coli; Crystallised with dGMP and soaked with dATP; The dimer is made by crystallographic symmetry; source: E. coli BL21-CodonPlus (DE3)-RIPL, purified (Ni-NTA, TEV cleavage, Superdex 200); not shown: His14, N-terminal, cleaved
On to B1, for which the “stoichiometry N” value in series [6] amounted to 2.

For the origin of these results see paper PMC8342488, “Characterization of a triad of genes in cyanophage S-2L sufficient to replace adenine by 2-aminoadenine in bacterial DNA” (Nature Communications, 2021).
